Experiments:
[1] = system: Uncinula necator; experiment: Fungicidal test, Uncinula necator (UNCINE) on vines, PRCO; format: in vivo; conditions: METHOD 2 (unbanded)
[2] = system: Septoria nodorum; experiment: Fungicidal test, Septoria nodorum (LEPTNO) on wheat, PRCO; format: in vivo; conditions: METHOD 2 (unbanded)
[3] = system: Puccinia recondita; experiment: Fungicidal test, Puccinia recondita (PUCCRT) on wheat, PRCO; format: in vivo; conditions: METHOD 2 (unbanded)
[4] = system: Venturia inaequalis; experiment: Fungicidal test, Venturia inaequalis (VENTIN) on apples, PRCO; format: in vivo; conditions: METHOD 2 (unbanded)
[5] = system: Phytophthora infestans lycopersici; format: in vivo; conditions: METHOD 2 (unbanded)
[6] = system: Erysiphe graminis f.sp. tritici; experiment: Fungicidal test, Erysiphe graminis f.sp. tritici (ERYSGT) on wheat, PRCO; format: in vivo; conditions: 1 d Prot/Foir; METHOD 2 (unbanded)
[7] = system: Meloidogyne incognita; experiment: Nematode test, J2 infective juveniles of Meloidogyne incognita, mortality; conditions: 12.5 ppm; J2 infective juveniles suspended in solution; mortality after three days
Protocol: The activities of individual compounds of formula (I) were determined using a variety of pests. With the exception of nematodes, the pests were treated with a liquid composition containing 500 parts per million (ppm) by weight of a compound unless otherwise stated. Each composition was made by dissolving the compound in an acetone and ethanol (50:50 by volume) mixture and diluting the solution with water containing 0.05% by volume of a wetting agent, SYNPERONIC NP8, until the liquid composition contained the required concentration of the compound.
The test procedure for nematodes involved dissolving the compound in an acetone and ethanol (50:50 by volume) mixture and diluting the solution with water to obtain a final concentration of the compound of 12.5 ppm. J2 infective juveniles of Meloidogyne incognita were suspended in the solution in a glass vial and mortality assessed after a period of three days.

[8] = system: Musca domestica; conditions: 500 ppm by weight; knockdown assessed 15 minutes after treatment

SMILES	UNCINE 1 d Prot/Foir PRCO [1]	LEPTNO 1 d Prot/Foir PRCO [2]	PUCCRT 1 d Prot/Foir PRCO [3]	VENTIN 1 d Prot/Foir PRCO [4]	PHYTIN 1 d Prot/Foir PRCO [5]	ERYSGT 1 d Prot/Foir PRCO [6]	MELGIN = Meloidogyne incognita, grading of mortality (score) [7]	MUSCDO AC = Musca domestica (knockdown), score [8]
Cc1nsc(NC(=O)Cc2ccc3oc(C(C)Cl)nc3c2)c1Cl (racemic) [93(A3)]	10	24	38	6	49	32	0 (0 indicates less than 40% mortality)	–
Cc1nc2ccc(CC(=O)Nc3snc(C)c3Cl)cc2o1 [2(A23)]	–	53	77	–	100	−3	0 (0 indicates less than 40% mortality)	0 (0 indicates less than 40% mortality)
CCCc1nc2ccc(CC(=O)Nc3snc(C)c3Cl)cc2o1 [4(A23)]	–	63	100	–	100	59	0 (0 indicates less than 40% mortality)	0 (0 indicates less than 40% mortality)
CCCc1nc2cc(CC(=O)N(C)c3snc(C)c3Cl)ccc2o1 [4(B3)]	–	–	48	–	100	–	0 (0 indicates less than 40% mortality)	0 (0 indicates less than 40% mortality)
CCCc1nc2cc(CC(=O)N(CC)c3snc(C)c3Cl)ccc2o1 [4(C3)]	–	–	96	–	79	–	0 (0 indicates less than 40% mortality)	0 (0 indicates less than 40% mortality)
CCCc1nc2cc(CC(=O)N(CCC)c3snc(C)c3Cl)ccc2o1 [4(D3)]	–	–	90	–	96	–	0 (0 indicates less than 40% mortality)	0 (0 indicates less than 40% mortality)
C=CCN(C(=O)Cc1ccc2oc(CCC)nc2c1)c1snc(C)c1Cl [4(E3)]	–	–	97	–	95	–	0 (0 indicates less than 40% mortality)	0 (0 indicates less than 40% mortality)
C#CCN(C(=O)Cc1ccc2oc(CCC)nc2c1)c1snc(C)c1Cl [4(F3)]	–	–	100	–	99	–	0 (0 indicates less than 40% mortality)	0 (0 indicates less than 40% mortality)
CCCc1nc2cc(CC(=O)N(COC)c3snc(C)c3Cl)ccc2o1 [4(K3)]	–	–	100	–	98	–	0 (0 indicates less than 40% mortality)	0 (0 indicates less than 40% mortality)
CCCc1nc2cc(CC(=O)N(COCC)c3snc(C)c3Cl)ccc2o1 [4(L3)]	–	–	100	–	100	–	0 (0 indicates less than 40% mortality)	9 (9 indicates 80-100% mortality)
CCCc1nc2cc(CC(=O)N(COCCOC)c3snc(C)c3Cl)ccc2o1 [4(M3)]	–	–	85	–	81	–	0 (0 indicates less than 40% mortality)	0 (0 indicates less than 40% mortality)
CCCC(C)c1nc2cc(CC(=O)Nc3snc(C)c3Cl)ccc2o1 (stereo not drawn) [12(A3)]	100	17	100	63	100	95	9 (9 indicates 80-100% mortality)	–
C=CCN(C(=O)Cc1ccc2oc(CC(C)(C)C)nc2c1)c1snc(C)c1Cl [15(E3)]	–	–	74	–	83	–	0 (0 indicates less than 40% mortality)	0 (0 indicates less than 40% mortality)
C#CCN(C(=O)Cc1ccc2oc(CC(C)(C)C)nc2c1)c1snc(C)c1Cl [15(F3)]	–	–	95	–	100	–	0 (0 indicates less than 40% mortality)	0 (0 indicates less than 40% mortality)
